Assay results: PMC3914206

Columns and labels:
[1] = molecular target: T1, panel of 442 kinases (Homo sapiens, UniProt P30291); type: binding; details: kinase WEE1; compound concentration 10 µM
T1 construct: purchased KINOMEscan
Source text: (§1) We assessed the selectivity of members of this scaffold using the KINOMEscan methodology across a near comprehensive panel of 442 kinases [[18,27]].

[2] = molecular target: T2, panel of 442 kinases (Homo sapiens, UniProt Q9UL54); type: binding; details: kinase TAOK2; compound concentration 10 µM
T2 construct: purchased KINOMEscan
T2 sequence (Q9UL54 1-1235): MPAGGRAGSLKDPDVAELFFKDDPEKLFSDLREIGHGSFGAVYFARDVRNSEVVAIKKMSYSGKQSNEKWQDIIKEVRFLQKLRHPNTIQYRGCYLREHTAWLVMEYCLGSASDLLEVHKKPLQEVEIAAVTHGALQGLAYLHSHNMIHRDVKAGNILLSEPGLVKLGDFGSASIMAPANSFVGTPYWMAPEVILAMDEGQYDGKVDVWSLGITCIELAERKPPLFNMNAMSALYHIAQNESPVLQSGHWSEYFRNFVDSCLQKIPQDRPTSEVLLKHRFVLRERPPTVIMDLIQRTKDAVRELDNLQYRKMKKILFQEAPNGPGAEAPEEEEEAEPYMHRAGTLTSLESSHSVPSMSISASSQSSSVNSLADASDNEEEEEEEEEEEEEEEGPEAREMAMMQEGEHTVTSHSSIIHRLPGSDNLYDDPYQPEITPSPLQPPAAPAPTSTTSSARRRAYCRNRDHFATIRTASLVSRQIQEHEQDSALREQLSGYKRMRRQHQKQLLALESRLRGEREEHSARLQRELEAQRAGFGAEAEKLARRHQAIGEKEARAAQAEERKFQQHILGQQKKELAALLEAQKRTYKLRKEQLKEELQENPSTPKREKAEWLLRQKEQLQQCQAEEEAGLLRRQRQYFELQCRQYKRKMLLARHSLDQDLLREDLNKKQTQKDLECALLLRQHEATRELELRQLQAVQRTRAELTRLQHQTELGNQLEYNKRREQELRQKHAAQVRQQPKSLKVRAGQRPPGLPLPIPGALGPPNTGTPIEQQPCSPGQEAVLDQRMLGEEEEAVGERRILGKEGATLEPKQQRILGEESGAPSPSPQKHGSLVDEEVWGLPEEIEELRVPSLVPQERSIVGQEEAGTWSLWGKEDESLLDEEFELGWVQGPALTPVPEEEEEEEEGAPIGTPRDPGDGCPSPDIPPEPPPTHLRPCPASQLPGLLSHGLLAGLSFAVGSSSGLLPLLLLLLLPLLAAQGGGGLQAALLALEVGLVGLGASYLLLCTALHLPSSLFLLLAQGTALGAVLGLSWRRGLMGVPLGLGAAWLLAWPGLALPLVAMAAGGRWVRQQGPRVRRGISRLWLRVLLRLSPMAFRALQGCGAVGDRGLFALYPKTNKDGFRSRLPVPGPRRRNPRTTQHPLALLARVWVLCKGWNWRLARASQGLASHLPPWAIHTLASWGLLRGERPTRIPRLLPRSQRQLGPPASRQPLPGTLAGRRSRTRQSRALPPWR
Source text: as §1

T1 sequence (P30291 whole entry): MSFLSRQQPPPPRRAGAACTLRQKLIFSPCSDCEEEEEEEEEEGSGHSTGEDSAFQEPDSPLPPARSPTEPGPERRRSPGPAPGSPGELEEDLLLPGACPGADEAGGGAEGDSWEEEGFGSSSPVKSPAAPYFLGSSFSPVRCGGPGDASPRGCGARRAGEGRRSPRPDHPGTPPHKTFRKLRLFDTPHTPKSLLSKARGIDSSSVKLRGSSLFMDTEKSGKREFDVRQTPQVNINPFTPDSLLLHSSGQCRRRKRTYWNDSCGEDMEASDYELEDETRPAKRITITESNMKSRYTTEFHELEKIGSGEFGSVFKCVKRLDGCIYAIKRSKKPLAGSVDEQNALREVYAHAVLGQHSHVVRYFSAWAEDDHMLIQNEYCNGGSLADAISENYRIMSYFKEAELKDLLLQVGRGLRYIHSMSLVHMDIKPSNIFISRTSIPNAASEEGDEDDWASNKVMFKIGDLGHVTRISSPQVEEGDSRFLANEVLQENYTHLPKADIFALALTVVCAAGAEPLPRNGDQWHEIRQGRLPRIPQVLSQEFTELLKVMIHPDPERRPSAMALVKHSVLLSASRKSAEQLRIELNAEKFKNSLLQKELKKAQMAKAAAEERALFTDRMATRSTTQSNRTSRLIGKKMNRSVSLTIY

Row | Structure (SMILES) | % Ctrl, WEE1 [1] | % Ctrl, TAOK2 [2]
1 | COc1cc(C(=O)N2CCC(N3CCN(C)CC3)CC2)ccc1Nc1ncc2c(n1)N(C)c1ccccc1C(=O)N2C [15 (LRRK2-IN-1)] | 100 % Ctrl | 65 % Ctrl
2 | COc1cc(C(=O)N2CCC(N3CCN(C)CC3)CC2)ccc1Nc1ncc2c(n1)N1CCc3cccc(c31)C(=O)N2C [Compound 24] | 82 % Ctrl | 100 % Ctrl
3 | COc1cc(C(=O)N2CCC(N3CCN(C)CC3)CC2)ccc1Nc1ncc2c(n1)N(C1CCCC1)c1ccccc1C(=O)N2C [Compound 25, 11-cyclopentyl-2-((2-methoxy-4-(4-(4-methylpiperazin-1-yl)piperidine-1-carbonyl)phenyl)amino)-5-methyl-5H-benzo[e]pyrimido[5,4-b][1,4]diazepin-6(11H)-one] | 98 % Ctrl | 74 % Ctrl
4 | CCOc1cc(C(=O)N2CCC(N3CCN(C)CC3)CC2)ccc1Nc1ncc2c(n1)N(C1CCCC1)c1ccccc1C(=O)N2C [Compound 26] | 100 % Ctrl | 78 % Ctrl
